In assay [1] the target is T1, human FAAH (Fatty Acid Amide Hydrolase) (Homo sapiens, UniProt O00519).
T1 construct: The full length FAAH was subcloned into the mammalian expression vector, pcDEF.neo, using XbaI and EcoRI restriction sites; expressed in transfected cells
T1 sequence (O00519 1-579): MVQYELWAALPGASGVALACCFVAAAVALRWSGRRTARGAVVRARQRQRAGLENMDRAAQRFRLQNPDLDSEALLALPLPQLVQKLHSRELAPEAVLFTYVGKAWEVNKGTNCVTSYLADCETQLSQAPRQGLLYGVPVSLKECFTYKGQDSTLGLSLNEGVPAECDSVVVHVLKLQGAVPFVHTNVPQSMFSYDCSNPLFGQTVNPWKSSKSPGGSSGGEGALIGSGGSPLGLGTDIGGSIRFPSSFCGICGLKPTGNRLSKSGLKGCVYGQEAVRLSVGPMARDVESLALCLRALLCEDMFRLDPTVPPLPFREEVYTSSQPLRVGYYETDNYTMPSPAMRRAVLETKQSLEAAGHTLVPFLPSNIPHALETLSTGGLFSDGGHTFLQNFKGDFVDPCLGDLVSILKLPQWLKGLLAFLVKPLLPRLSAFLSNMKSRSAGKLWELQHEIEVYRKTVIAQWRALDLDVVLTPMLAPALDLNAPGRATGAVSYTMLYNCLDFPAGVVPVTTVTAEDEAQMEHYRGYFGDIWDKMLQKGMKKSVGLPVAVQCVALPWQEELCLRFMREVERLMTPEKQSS
Kind of assay: FAAH enzyme assay on CHO cell lysate expressing human FAAH (human LY), AAMCA fluorescent substrate. Format: biochemical. The conditions noted are these: human FAAH_CHO cell lysate. An excerpt: To assist in assay development stable cell lines for human, murine and rat full length FAAH were developed. Human FAAH cDNA (Accession No: NM_001441.1) was purchased from Origene (Rockville, Md.). The full length FAAH was subcloned into the mammalian expression vector, pcDEF.neo, using XbaI and EcoRI restriction sites and used for stable cell line generation.
CHO cells expressing FAAH were used to prepare either crude cell lysate or microsome fractions. To harvest cells, tissue culture media was decanted, the monolayer washed three times with Ca^++Mg^++ free PBS and cells recovered after […] in enzyme free dissociation media (Millipore Corp, Billerica, Mass.). Cells were collected by centrifuging at 2000 rpm for 15 min. and the cell pellet re-suspended with 50 mM HEPES (pH 7.4) containing 1 mM EDTA and the protease inhibitors aprotinin (1 mg/ml) and leupeptin (100 μM). The suspension was sonicated at 4° C. and the cell lysate recovered after centrifuging at 12,000×g (14,600 rpm, SS34 rotor) for 20 min at 4° C. to form a crude pellet of cell debris, nuclei, peroxisomes, lysosomes, and mitochondria; the supernatant or cell lysate was used for FAAH enzyme assay. In some cases, microsomes fractions enriched in FAAH were prepared by centrifuging the cell lysate further at 27,000 rpm (100,000×g) in SW28 rotor for 50 minutes at 4° C. The pellet containing FAAH-enriched microsomes was re-suspend in 50 mM HEPES, (pH 7.4) 1 mM EDTA, and any remaining DNA sheared by passage of material through a 23 gauge needle and aliquots of enzyme were store at −80° C. prior to use.
(American Radiolabeled Chemicals; 1 mCi/ml) with FAAH (Life Sciences (1995), 56, 1999-2005 and Journal of Pharmacology and Experimented Therapeutics (1997), 283, 729-734), Analytical. Biochemistry (2003), 318, 270-5. In addition, routine assays were performed monitoring hydrolysis of arachidonyl-7-amino-4-methylcoumarin amide (AAMCA) by following increase in fluorescence upon release of 7-amino 4-methyl coumarin (λEX=355 nm, μEM=460 nm). Analytical. Biochemistry (2005). 343, 143-51
Assays are performed on either cell lysate or microsome fractions prepared as described or in whole cell format employing either the fluorescent substrate AAMCA (Cayman chemical, Ann Arbor, Mich.,) or ^3H-anandamide ([ETHANOLAMINE-1-3H] American Radiolabeled Chemicals; 1 mCi/ml). The cell lysate or microsome assay is performed in black PerkinElmer OptiPlates-384F by adding FAAH_CHO (whole cell (human whole cell or human WC), cell lysate (human cell lysate or human LY) or microsome) in assay buffer (50 mM Phosphate, pH 8.0, 1 mM EDTA, 200 mM KCl, 0.2% glycerol, 0.1% fatty acid free BSA) to each well, followed by either DMSO or compound and allowed to incubate at 22-25° C. for fifteen minutes. AAMCA substrate was used to achieve a final concentration of 1 μM and reaction allowed to proceed at room temperature for 1-3 hours. Fluorescent release as a measure of FAAH activity was monitored by reading the plate in a Envision plate Reader (Ex: 360/40 nM; Em: 460/40 nM). Whole cell assay is conducted with cells harvested after rinsing tissue culture flasks three times with Ca^++Mg^++ free PBS, incubating for […] in Enzyme free dissociation media and centrifuging for 5 minutes at 1,000 rpm in table top centrifuge. Cells are resuspended in assay buffer at desired cell number in (4×10^4 cells/assay in 96-well format; 1×10^4 cells/assay in 384-well format) and assayed as described.

In assay [2] the target is T1, human FAAH (Fatty Acid Amide Hydrolase). Kind of assay: FAAH whole cell assay on CHO cells expressing human FAAH (human WC), AAMCA fluorescent substrate. Format: cell-based. Particulars: human FAAH_CHO whole cell. Put shortly: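 CHO cells stably expressing full-length human FAAH, harvested with enzyme-free dissociation and resuspended at 4×10^4 cells/assay (96-well) or 1×10^4 (384-well) in 50 mM phosphate pH 8.0, 1 mM EDTA, 200 mM KCl, 0.2% glycerol, 0.1% BSA.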

In the case of `CC(C)(O)/C=C/c1[nH]c2ncccc2c1Sc1ccc(Cl)cc1` [Example B34], the half-inhibitory concentration (IC50) in assay [1] worked out at 213 nM; in assay [2], 1110 nM.

Regarding `Clc1ccc(Sc2c(-c3cnn4c3CCCC4)[nH]c3ncccc23)cc1` [Example B35], the IC50 in assay [1] worked out at 33.5 nM; in assay [2], 344 nM.

As to `OC1CC=C(c2[nH]c3ncccc3c2Sc2ccc(Cl)cc2)CC1` (stereo not shown) [Example B36], the figures for the IC50 in assay [1] and in assay [2] were 1.79 nM and 9.53 nM, respectively.

In the case of `Clc1ccc(Sc2c(-c3ccc(C4CC4)nc3)[nH]c3ncccc23)cc1` [Example B37], the IC50 in assay [1] worked out at 6.42 nM; in assay [2] it was 21.7 nM.

As to `CC(O)C/C=C/c1[nH]c2ncccc2c1Sc1ccc(Cl)cc1` (stereo not shown) [Example B38], the IC50 in assay [1] is 22.5 nM; in assay [2], 352 nM.

For the molecule `FC(F)(F)c1ccc(/C=C/c2[nH]c3ncccc3c2Sc2ccc(Cl)cc2)cc1` [Example B39], the concentration for half-maximal inhibition (IC50) in assay [1] and in assay [2] was 370 nM throughout.

Take `Clc1ccc(Sc2c(C3=CCCCC3)[nH]c3ncccc23)cc1` [Example B40]: the figures for the IC50 in assay [1] and in assay [2] were 15.9 nM and 68.4 nM, respectively.

Consider `COc1cc(-c2[nH]c3ncccc3c2Sc2ccc(Cl)cc2)cnc1OC` [Example B41], for which the IC50 in assay [1] is 6.39 nM; in assay [2] it was 16.2 nM.

With `COc1ccc(-c2[nH]c3ncccc3c2Sc2ccc(Cl)cc2)cn1` [Example B43], the IC50 is 3.42 nM in assay [1] and 18.9 nM in assay [2].

On to `FC(F)Oc1ccc(-c2[nH]c3ncccc3c2Sc2ccc(Cl)cc2)cc1` [Example B45], for which the 50% inhibitory concentration (IC50) was found to be 3.28 nM in assay [1] and 15.7 nM in assay [2].

`NC1CC=C(c2[nH]c3ncccc3c2Sc2ccc(Cl)cc2)CC1` (stereo not shown) [Example B46]: the IC50 in assay [1] was found to be 114 nM; in assay [2], 1410 nM.

Turning to `O=C(O)C1CC=C(c2[nH]c3ncccc3c2Sc2ccc(Cl)cc2)CC1` (stereo not shown) [Example B47], the half-inhibitory concentration (IC50) turned out to be 252 nM in assay [1] and 573 nM in assay [2].

For the molecule `CCNC(=O)C1CC=C(c2[nH]c3ncccc3c2Sc2ccc(Cl)cc2)CC1` (stereo not shown) [Example B48], the results for the concentration for half-maximal inhibition (IC50) in assay [1] and in assay [2] were 9.5 nM and 29.1 nM, respectively.

Regarding `O=C(NCCO)C1CC=C(c2[nH]c3ncccc3c2Sc2ccc(Cl)cc2)CC1` (stereo not shown) [Example B49], the IC50 in assay [1] was 23.8 nM; in assay [2], 66.3 nM.

On to `OCC1CC=C(c2[nH]c3ncccc3c2Sc2ccc(Cl)cc2)CC1` (stereo not shown) [Example B50, (4-{3-[(4-chlorophenyl)sulfanyl]-1H-pyrrolo[2,3-b]pyridin-2-yl}cyclohex-3-en-1-yl)methanol], for which the half-maximal inhibitory concentration (IC50) stood at 3.06 nM in assay [1] and 8.04 nM in assay [2].

On to `OC[C@H]1CC[C@@H](c2[nH]c3ncccc3c2Sc2ccc(Cl)cc2)CC1` [Example B51], for which the values for the concentration for half-maximal inhibition (IC50) in assay [1] and in assay [2] were 14.6 nM and 73.9 nM, respectively.

Regarding `O=C(N[C@H]1CC[C@H](O)CC1)c1[nH]c2ncccc2c1Sc1ccc(Cl)cc1` [Example C4, 3-[(4-chlorophenyl)sulfanyl]-N-(trans-4-hydroxycyclohexyl)-1H-pyrrolo[2,3-b]pyridine-2-carboxamide], the half-maximal inhibitory concentration (IC50) came out at 7.64 nM in assay [1] and 48 nM in assay [2].

For `COc1ccc(NC(=O)c2[nH]c3ncccc3c2Sc2ccc(Cl)cc2)cn1` [Example C8], the 50% inhibitory concentration (IC50) in assay [1] was 42.9 nM; in assay [2], 272 nM.

Turning to `CC1(C)CCC(NC(=O)c2[nH]c3ncccc3c2Sc2ccc(Cl)cc2)CC1` [Example C9], the figures for the IC50 in assay [1] and in assay [2] were 251 nM and 773 nM, respectively.

As to `O=C(NCC(O)C1CCCCC1)c1[nH]c2ncccc2c1Sc1ccc(Cl)cc1` (stereo not shown) [Example C10], the values for the half-inhibitory concentration (IC50) in assay [1] and in assay [2] were 660 nM and 1990 nM, respectively.

In the case of `O=C(NCc1ccc(O)c(O)c1)c1[nH]c2ncccc2c1Sc1ccc(Cl)cc1` [Example C11], the results for the 50% inhibitory concentration (IC50) in assay [1] and in assay [2] were 15.2 nM and 107 nM, respectively.

Turning to `O=C(c1[nH]c2ncccc2c1Sc1ccc(Cl)cc1)N1CCc2ccncc21` [Example C12], the IC50 was 2080 nM in assay [1] and 2680 nM in assay [2].

Consider `CC(C1COc2ccccc2O1)N(C)C(=O)c1[nH]c2ncccc2c1Sc1ccc(Cl)cc1` (stereo not shown) [Example C13], for which the figures for the 50% inhibitory concentration (IC50) in assay [1] and in assay [2] were 256 nM and 2630 nM, respectively.

As usually defined, the IC50 is the point on the concentration scale where inhibition reaches its midpoint. A lower IC50 goes with higher potency.

The values are drawn from patent publication US20130059850A1, “AZA-INDOLE DERIVATIVES USEFUL AS MODULATORS OF FAAH” (MERCK SHARP & DOHME CORP., priority 2010, published 2013).
